The text below walks through data of ChEMBL document CHEMBL3860027, “α-Pyrones with Diverse Hydroxy Substitutions from Three Marine-Derived Nocardiopsis Strains” (2016).

Converted amounts (≈) assume the structure as drawn.

The first test has as its system Micrococcus luteus. Put plainly: Antibacterial activity against Micrococcus luteus SCSIO ML01 by broth microdilution method. The test is classed as functional.
Broadly, the MIC is the smallest concentration in the dilution series that meets the test's criterion for growth inhibition. Higher therefore signals a need for much substance. For `CCc1ccc([C@H](C)CC)oc1=O`, inhibition of growth (MIC) required 32 µg/mL (≈ 178 µM).

In the case of `CCc1ccc(CC(C)(C)O)c(=O)o1`, the MIC was 32 µg/mL (≈ 163 µM).

In the case of `CCc1ccc(CC(C)C)c(=O)o1`, the MIC came out at 32 µg/mL (≈ 178 µM).

The compound `CC(C)Cc1ccc(C(C)O)oc1=O` (racemic) yielded an MIC of 16 µg/mL (≈ 81.5 µM).

The next test deals with Bacillus subtilis. Briefly: Antibacterial activity against Bacillus subtilis SCSIO BS01 by broth microdilution method. The class given is functional. For orientation: Broth dilution looks for growth in wells or tubes with falling amounts of substance.
Compound `CCc1ccc(CC(C)C)c(=O)o1` had an MIC of 64 µg/mL (≈ 355 µM).

`CC[C@@H](C)c1ccc(C)c(=O)o1` yielded an MIC of 64 µg/mL (≈ 385 µM).
